ChEMBL document CHEMBL6078647 (J Med Chem, 2024)
Calls of active or inactive are those of the source. The rule behind the calls is not given here. Peptide text beside a SMILES is read from it. * marks the point of attachment. X1 = C[N+]1=C(/C=C/C=C2\N(CCCCCC(=O)*)c3ccccc3C2(C)C)C(C)(C)c2ccccc21

Tests used:
[1] = Fluorescence property of compound in HEPES buffer assessed as quantum yield; type: physicochemical
[2] = biological target: T1, Type-1 angiotensin II receptor (Homo sapiens) (UniProt P30556); test: (§1) Agonist activity at Flag-tagged AT1R (unknown origin) extracted from HEK293 cell membrane co expressing YPET-ARRB2 assessed as beta-arrestin 2 recruitment using NanoGlo as substrate preincubated for 30 mins followed by substrate addition for 10 mins by BRET assay; type: functional, cell membranes
T1 sequence (whole entry): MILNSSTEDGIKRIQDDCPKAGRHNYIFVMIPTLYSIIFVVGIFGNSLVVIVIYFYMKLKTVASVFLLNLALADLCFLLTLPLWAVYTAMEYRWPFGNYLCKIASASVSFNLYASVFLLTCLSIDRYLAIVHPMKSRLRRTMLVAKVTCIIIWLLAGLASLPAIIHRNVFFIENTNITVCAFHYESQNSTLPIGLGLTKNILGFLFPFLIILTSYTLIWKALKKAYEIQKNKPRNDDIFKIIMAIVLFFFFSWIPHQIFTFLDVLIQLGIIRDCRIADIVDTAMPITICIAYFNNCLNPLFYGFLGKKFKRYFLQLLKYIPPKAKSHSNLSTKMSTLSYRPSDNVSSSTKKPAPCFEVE

Cerebral artery [3] = test: Vaso-constriction activity in male wistar rat middle cerebral artery assessed as arterial contraction at 1 uM in presence of losartan; type: functional, tissue-based
[4] = biological target: T1, Type-1 angiotensin II receptor (Homo sapiens); test: (§2) Agonist activity at Flag-tagged AT1R (unknown origin) extracted from HEK293T cell membrane co expressing YPET-ARRB1 assessed as beta-arrestin 1 recruitment using NanoGlo as substrate preincubated for 30 mins followed by substrate addition for 10 mins by BRET assay; type: functional, cell membranes
[5] = biological target: T1, Type-1 angiotensin II receptor (Homo sapiens); test: Induction of human NLuc-tagged AT1R (unknown origin) internalization in HEK293 cells co expressing venus-MP using NanoGlo as substrate preincubated for 30 mins followed by substrate addition for 10 mins by BRET assay; type: functional
Cerebral artery [6] = test: Vaso-constriction activity in male wistar rat middle cerebral artery assessed as arterial contraction at 10 nM; type: functional, tissue-based
Cerebral artery [7] = test: Vaso-constriction activity in male wistar rat middle cerebral artery assessed as arterial contraction at 1 uM; type: functional, tissue-based
[8] = biological target: T1, Type-1 angiotensin II receptor (Homo sapiens); test: Binding affinity to Flag-tagged AT1R (unknown origin) extracted from HEK293 cell membrane assessed as increase in median red fluorescence intensity at 1 nM incubated for 15 mins by flow cytometric analysis; type: cell membranes; details: filed as antagonist
[9] = biological target: T2, Type-2 angiotensin II receptor (Homo sapiens) (UniProt P50052); test: Binding affinity to GFP-tagged AT2R (unknown origin) extracted from HEK293 cell membrane assessed as fluorescent signal in plasma membrane incubated for 15 mins by confocal microscopic analysis; type: cell membranes
T2 sequence (whole entry): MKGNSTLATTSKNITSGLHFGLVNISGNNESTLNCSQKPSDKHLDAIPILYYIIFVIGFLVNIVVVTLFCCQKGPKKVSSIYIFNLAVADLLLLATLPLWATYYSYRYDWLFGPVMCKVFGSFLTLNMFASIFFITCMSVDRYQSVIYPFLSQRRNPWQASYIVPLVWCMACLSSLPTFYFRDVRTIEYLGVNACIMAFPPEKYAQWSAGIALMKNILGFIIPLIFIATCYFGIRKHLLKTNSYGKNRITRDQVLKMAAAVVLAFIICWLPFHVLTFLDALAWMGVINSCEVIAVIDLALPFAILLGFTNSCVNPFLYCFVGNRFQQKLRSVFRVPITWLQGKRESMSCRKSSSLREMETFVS

[10] = biological target: T3, Type-1 angiotensin II receptor (Homo sapiens, UniProt P30556); test: Antagonist activity at Flag-tagged AT1R (unknown origin) extracted from HEK293 cell membrane assessed as increase in intracellular calcium incubated for 30 mins by microplate reader analysis; type: functional, cell membranes
T3 sequence (P30556 whole entry): T1 sequence (whole entry)

[11] = biological target: T1, Type-1 angiotensin II receptor (Homo sapiens); test: Binding affinity to Flag-tagged AT1R (unknown origin) extracted from HEK293 cell membrane assessed as increase in median red fluorescence intensity at > 30 nM incubated for 30 mins by flow cytometric analysis; type: cell membranes
Homo sapiens [12] = species: Homo sapiens; test: Selectivity index, ratio of Ki for binding affinity to human AT2R extracted from HEK293T cell membrane in presence of [125I][Sar1 Ile8]-angiotensin II by competitive radioligand binding assay to Ki for binding affinity to human AT1R extracted from HEK293T cell membrane in presence of [125I][Sar1 Ile8]-angiotensin II by competitive radioligand binding assay
[13] = biological target: T4, Type-2 angiotensin II receptor (Homo sapiens, UniProt P50052); test: Binding affinity to human AT2R extracted from HEK293T cell membrane assessed as inhibition constant in presence of [125I][Sar1 Ile8]-angiotensin II by competitive radioligand binding assay; type: cell membranes
T4 sequence (P50052 whole entry): T2 sequence (whole entry)

[14] = biological target: T3, Type-1 angiotensin II receptor; test: Binding affinity to human AT1R extracted from HEK293T cell membrane assessed as inhibition constant in presence of [125I][Sar1 Ile8]-angiotensin II by competitive radioligand binding assay; type: cell membranes
[15] = biological target: T3, Type-1 angiotensin II receptor; test: Binding affinity to GFP-tagged AT1R (unknown origin) extracted from HEK293 cell membrane assessed as dissociation constant; type: cell membranes
[16] = biological target: T3, Type-1 angiotensin II receptor; test: Antagonist activity at Flag-tagged AT1R (unknown origin) extracted from HEK293 cell membrane co expressing YPET-ARRB2 assessed as beta-arrestin 2 recruitment using NanoGlo as substrate preincubated for 30 mins followed by substrate addition for 10 mins by BRET assay; type: functional, cell membranes
[17] = biological target: T1, Type-1 angiotensin II receptor (Homo sapiens); test: Induction of human NLuc-tagged AT1R (unknown origin) internalization in HEK293 cells co expressing venus-MP assessed as inhibition of AgII-induced AT1R internalization using NanoGlo as substrate preincubated for 30 mins followed by substrate addition for 10 mins by BRET assay; type: functional
[18] = biological target: T1, Type-1 angiotensin II receptor (Homo sapiens); test: Binding affinity to GFP-tagged AT1R (unknown origin) extracted from HEK293 cell membrane assessed as fluorescent signal in plasma membrane incubated for 15 mins by confocal microscopic analysis; type: cell membranes; details: filed as antagonist
[19] = biological target: T1, Type-1 angiotensin II receptor (Homo sapiens); test: Binding affinity to human GFP-tagged AT1R (unknown origin) extracted from HEK293 cell membrane assessed as colocalization of AT1R in plasma membrane at 30 nM preincubated with losartan at 10 uM followed by compound addition for 30 mins by epifluorescence microscopic analysis; type: cell membranes; details: filed as antagonist
[20] = biological target: T3, Type-1 angiotensin II receptor; test: Antagonist activity at Flag-tagged AT1R (unknown origin) extracted from HEK293 cell membrane co expressing YPET-ARRB1 assessed as beta-arrestin 1 recruitment using NanoGlo as substrate preincubated for 30 mins followed by substrate addition for 10 mins by BRET assay; type: functional, cell membranes
[21] = biological target: T1, Type-1 angiotensin II receptor (Homo sapiens); test: Binding affinity to human GFP-tagged AT1R (unknown origin) extracted from HEK293 cell membrane assessed as colocalization of AT1R in endocytic vesicles at 100 nM incubated for 30 mins by epifluorescence microscopic analysis; type: cell membranes; details: filed as agonist
[22] = biological target: T2, Type-2 angiotensin II receptor (Homo sapiens); test: Binding affinity to human GFP-tagged AT2R extracted from HEK293 cell membrane assessed as colocalization of AT2R in plasma membrane at 30 nM incubated for 30 mins by epifluorescence microscopic analysis; type: cell membranes; details: filed as agonist
[23] = biological target: T1, Type-1 angiotensin II receptor (Homo sapiens); test: Agonist activity at AT1R (unknown origin) extracted from HEK293 cell membrane coexpressing NLuc and Venus-miniG assessed as miniGq protein recruitment at 1 uM using NanoGlo as substrate preincubated for 30 mins followed by substrate addition for 10 mins by BRET assay; type: functional, cell membranes; details: time 40.0 min
[24] = biological target: T2, Type-2 angiotensin II receptor (Homo sapiens); test: Binding affinity to GFP-tagged AT2R (unknown origin) extracted from HEK293 cell membrane assessed as increase in median red fluorescence intensity incubated for 15 mins by flow cytometric analysis; type: cell membranes; details: filed as agonist
Homo sapiens [25] = species: Homo sapiens; test: Selectivity index, ratio of Ki for binding affinity to human AT1R extracted from HEK293T cell membrane in presence of [125I][Sar1 Ile8]-angiotensin II by competitive radioligand binding assay to Ki for binding affinity to human AT2R extracted from HEK293T cell membrane in presence of [125I][Sar1 Ile8]-angiotensin II by competitive radioligand binding assay
[26] = biological target: T1, Type-1 angiotensin II receptor (Homo sapiens); test: Agonist activity at Flag-tagged AT1R (unknown origin) extracted from HEK293 cell membrane assessed as increase in intracellular calcium at >100 nM incubated for 30 mins by microplate reader analysis; type: functional, cell membranes; details: filed as agonist
[27] = biological target: T1, Type-1 angiotensin II receptor (Homo sapiens); test: as §2, with “HEK293” for “HEK293T”, “recruitment at 1 uM by measuring maximum efficacy” for “recruitment”; type: functional, cell membranes; details: filed as agonist
Cerebral artery [28] = test: Vaso-constriction activity in male wistar rat middle cerebral artery assessed as arterial contraction; type: functional, tissue-based
[29] = biological target: T1, Type-1 angiotensin II receptor (Homo sapiens); test: as §1, with “recruitment at 1 uM by measuring maximum efficacy” for “recruitment”; type: functional, cell membranes; details: filed as agonist
[30] = biological target: T1, Type-1 angiotensin II receptor (Homo sapiens); test: Binding affinity to human GFP-tagged AT1R (unknown origin) extracted from HEK293 cell membrane assessed as colocalization of AT1R in endocytic vesicles at 50 nM incubated for 30 mins by epifluorescence microscopic analysis; type: cell membranes; details: filed as agonist
[31] = biological target: T2, Type-2 angiotensin II receptor (Homo sapiens); test: Binding affinity to human GFP-tagged AT2R extracted from HEK293 cell membrane assessed as colocalization of AT2R in plasma membrane at 50 nM incubated for 30 mins by epifluorescence microscopic analysis; type: cell membranes; details: filed as agonist

## CC[C@H](C)[C@H](NC(=O)[C@@H](NC(=O)[C@H](CC(=O)O)NC(=O)[C@@H]1CCCN1C(=O)[C@H](Cc1c[nH]cn1)NC(=O)[C@H](Cc1ccccc1)NC(=O)[C@H](Cc1ccc(O)cc1)NC(=O)CCCCCN1/C(=C\C=C\C2=[N+](C)c3ccccc3C2(C)C)C(C)(C)c2ccccc21)C(C)C)C(=O)N[C@@H](CCCNC(=N)N)C(=O)O (X1-YFHPDVIR-OH)
[1]
  Activity: 0.101
[2]
  Activity: inactive
Cerebral artery [3]
  Activity: Active
[4]; HEK293
  Activity: inactive
[5]
  Activity: inactive

## CC[C@H](C)[C@H](NC(=O)[C@H](Cc1ccc(O)cc1)NC(=O)[C@@H](NC(=O)[C@H](CCCNC(=N)N)NC(=O)[C@H](CC(=O)O)NC(=O)CCCCCN1/C(=C\C=C\C2=[N+](C)c3ccccc3C2(C)C)C(C)(C)c2ccccc21)C(C)C)C(=O)N[C@@H](Cc1c[nH]cn1)C(=O)N1CCC[C@H]1C(=O)N[C@@H](Cc1ccccc1)C(=O)O
[1]
  Activity: 0.08
Cerebral artery [6]
  Activity: Active
Cerebral artery [7]
  Activity: Active

## CCCCc1nc(Cl)c(C(=O)NCCOCCOCCNC(=O)CCCCCN2/C(=C/C=C/C3=[N+](C)c4ccccc4C3(C)C)C(C)(C)c3ccccc32)n1Cc1ccc(-c2ccccc2-c2nn[nH]n2)cc1.F[B-](F)(F)F
[8]
  Activity: Active
[9]
  Activity: inactive
[10]
  EC50: Active
[1]
  Activity: 0.232
[11]
  Activity: inactive
Homo sapiens [12]
  Ratio Ki: 521
[13]; read-out: Ki
  Ki: 5570 nM
[13]; read-out: pKi (converted)
  Ki: 3020 nM
[14]; read-out: Ki
  Ki: 10.7 nM
[15]
  Kd: ~30 nM
[16]
  EC50: Active
[17]
  Activity: Dose-dependent-effect
[18]
  Activity: Active
[19]
  Activity: Active
[20]
  EC50: Active

## CC[C@H](C)[C@H](NC(=O)[C@H](Cc1ccc(O)cc1)NC(=O)[C@@H](NC(=O)[C@H](CCCNC(=N)N)NC(=O)CN(C)C(=O)CCCCCN1/C(=C\C=C\C2=[N+](C)c3ccccc3C2(C)C)C(C)(C)c2ccccc21)C(C)C)C(=O)N[C@@H](Cc1c[nH]cn1)C(=O)N1CCC[C@H]1C(=O)N[C@@H](C)C(=O)O
[21]
  Activity: Active; Scarce Colocalization Of Compound Was Observed
[1]
  Activity: 0.076
[13]; read-out: Ki
  Ki: 4.23 nM
[13]; read-out: pKi (converted)
  Ki: 3.31 nM
[14]; read-out: Ki
  Ki: 5430 nM
[14]; read-out: pKi (converted)
  Ki: 5130 nM
[22]
  Activity: Active
[23]; filed as agonist
  Activity: Active
[24]
  Activity: Active
Homo sapiens [25]
  Ratio Ki: 1280
[26]
  Activity: Active
Cerebral artery [7]
  Activity: Active

## CC[C@H](C)[C@H](NC(=O)[C@H](Cc1ccc(O)cc1)NC(=O)[C@@H](NC(=O)[C@H](CCCN=C(N)N)NC(=O)CNC)C(C)C)C(=O)N[C@@H](Cc1c[nH]cn1)C(=O)N1CCC[C@H]1C(=O)N[C@@H](C)C(=O)O
[27]
  Emax: 0.031 a.u.
[2]; filed as agonist
  Activity: Dose-dependent-effect
[23]
  Activity: inactive
[4]; HEK293, filed as agonist
  Activity: Dose-dependent-effect
Cerebral artery [28]
  Activity: inactive
[29]
  Emax: 0.043 a.u.
[30]
  Activity: Active
[31]
  Activity: Active
[5]; filed as agonist
  Activity: Active
